Measured values from PMC3969223, “Characterization of WZ4003 and HTH-01-015 as selective inhibitors of the LKB1-tumour-suppressor-activated NUAK kinases” (Biochemical Journal, 2013).

Key:
U2OS cells = assay: Cell proliferation assay (CellTiter 96 AQueous); assay type: cell-based; details: 10 μM, 5 days; same extent as shRNA-mediated NUAK1 knockdown
Description: Cell proliferation assays were carried out colorimetrically in 96-well plates using the CellTiter 96® AQueous Non-Radioactive Cell Proliferation Assay kit (Promega) following the manufacturer's protocol. Initially, 2000 cells per well were seeded for U2OS cells and 3000 cells per well were seeded for MEFs. The proliferation assays were carried out over 5 days in the presence or absence of 10 μM HTH-01-015 or WZ4003.

MYPT1 phosphorylation = MYPT1 phosphorylation on detachment, MEFs; assay type: cell-based, mouse; details: 10 μM, 16 h
Description: Figure 7 NUAK1 inhibition suppresses cell proliferation (A) U2OS cells were incubated with or without 10 μM WZ4003 or 10 μM HTH-01-015 and a cell proliferation assay was carried out over 5 days in triplicate using the CellTiter 96® AQueous Non-Radioactive Cell Proliferation Assay kit (Promega) (as described in the Materials and methods section). U2OS cells in which NUAK1 has been knocked-down using two different shRNA hairpins were used in parallel as controls. The efficiency of the knock down of each shRNA is shown in top panel. SCR, control scrambled shRNA hairpin; shNUAK1 (1), first NUAK1 shRNA hairpin; shNUAK1 (2), second NUAK1 shRNA hairpin. (B) U2OS cells were treated with (+) or without (−) 10 μM WZ4003 or 10 μM HTH-01-015. After 16 h cell media was removed and cells were treated with EDTA-PBS-based cell dissociation buffer supplemented with 10 μM WZ4003, 10 μM HTH-01–015 or DMSO for 20 min. Cell detachment was induced with gentle tapping of the plates followed by gentle centrifugation at 70 g for 3 min. Cells were lysed immediately after removal of the media and immunoblotted for the detection of the indicated antibodies. (C and D) As above, except NUAK1^+/+ and NUAK1^−/− MEFs were used. Similar results were obtained in three separate experiments.

ASK1 = ASK1 (Homo sapiens, UniProt Q99683); assay: Kinase profiling; assay type: biochemical; details: 0.1 or 1 μM inhibitor; mean of triplicate
Method in brief: (§1)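 Screened in vitro against a 140-kinase panel with inhibitor at 0.1 or 1 μM. Values are percent of kinase activity remaining relative to DMSO control reactions, averaged from triplicate reactions ±S.D.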

CAMKKβ = CAMKKβ (Homo sapiens, UniProt Q96RR4); assay: Kinase profiling; assay type: biochemical; details: 0.1 or 1 μM inhibitor; mean of triplicate
Method in brief: as §1

CHK2 = CHK2 (Homo sapiens, UniProt O96017); assay: Kinase profiling; assay type: biochemical; details: 0.1 or 1 μM inhibitor; mean of triplicate
Method in brief: as §1

CK2 = CK2 (Homo sapiens, UniProt P68400); assay: Kinase profiling; assay type: biochemical; details: 0.1 or 1 μM inhibitor; mean of triplicate
CK2, sequence (P68400 whole entry): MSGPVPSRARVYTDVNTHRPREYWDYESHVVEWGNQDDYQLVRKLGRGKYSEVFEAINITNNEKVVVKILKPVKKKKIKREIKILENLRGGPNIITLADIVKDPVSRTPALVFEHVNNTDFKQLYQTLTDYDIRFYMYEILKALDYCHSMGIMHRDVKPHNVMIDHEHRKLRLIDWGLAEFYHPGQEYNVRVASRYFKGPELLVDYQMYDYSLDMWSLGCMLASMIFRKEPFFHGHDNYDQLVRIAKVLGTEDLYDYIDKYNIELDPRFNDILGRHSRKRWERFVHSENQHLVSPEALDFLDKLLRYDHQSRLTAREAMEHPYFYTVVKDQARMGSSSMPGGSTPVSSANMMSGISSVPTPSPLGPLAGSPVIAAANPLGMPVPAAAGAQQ

EPH-B3 = EPH-B3 (Homo sapiens, UniProt P54753); assay: Kinase profiling; assay type: biochemical; details: 0.1 or 1 μM inhibitor; mean of triplicate
Method in brief: as §1

ERK2 = ERK2 (Homo sapiens, UniProt P28482); assay: Kinase profiling; assay type: biochemical; details: 0.1 or 1 μM inhibitor; mean of triplicate
Method in brief: as §1

IGF-1R = IGF-1R (Homo sapiens, UniProt P08069); assay: Kinase profiling; assay type: biochemical; details: 0.1 or 1 μM inhibitor; mean of triplicate
IGF-1R, sequence (P08069 31-1367): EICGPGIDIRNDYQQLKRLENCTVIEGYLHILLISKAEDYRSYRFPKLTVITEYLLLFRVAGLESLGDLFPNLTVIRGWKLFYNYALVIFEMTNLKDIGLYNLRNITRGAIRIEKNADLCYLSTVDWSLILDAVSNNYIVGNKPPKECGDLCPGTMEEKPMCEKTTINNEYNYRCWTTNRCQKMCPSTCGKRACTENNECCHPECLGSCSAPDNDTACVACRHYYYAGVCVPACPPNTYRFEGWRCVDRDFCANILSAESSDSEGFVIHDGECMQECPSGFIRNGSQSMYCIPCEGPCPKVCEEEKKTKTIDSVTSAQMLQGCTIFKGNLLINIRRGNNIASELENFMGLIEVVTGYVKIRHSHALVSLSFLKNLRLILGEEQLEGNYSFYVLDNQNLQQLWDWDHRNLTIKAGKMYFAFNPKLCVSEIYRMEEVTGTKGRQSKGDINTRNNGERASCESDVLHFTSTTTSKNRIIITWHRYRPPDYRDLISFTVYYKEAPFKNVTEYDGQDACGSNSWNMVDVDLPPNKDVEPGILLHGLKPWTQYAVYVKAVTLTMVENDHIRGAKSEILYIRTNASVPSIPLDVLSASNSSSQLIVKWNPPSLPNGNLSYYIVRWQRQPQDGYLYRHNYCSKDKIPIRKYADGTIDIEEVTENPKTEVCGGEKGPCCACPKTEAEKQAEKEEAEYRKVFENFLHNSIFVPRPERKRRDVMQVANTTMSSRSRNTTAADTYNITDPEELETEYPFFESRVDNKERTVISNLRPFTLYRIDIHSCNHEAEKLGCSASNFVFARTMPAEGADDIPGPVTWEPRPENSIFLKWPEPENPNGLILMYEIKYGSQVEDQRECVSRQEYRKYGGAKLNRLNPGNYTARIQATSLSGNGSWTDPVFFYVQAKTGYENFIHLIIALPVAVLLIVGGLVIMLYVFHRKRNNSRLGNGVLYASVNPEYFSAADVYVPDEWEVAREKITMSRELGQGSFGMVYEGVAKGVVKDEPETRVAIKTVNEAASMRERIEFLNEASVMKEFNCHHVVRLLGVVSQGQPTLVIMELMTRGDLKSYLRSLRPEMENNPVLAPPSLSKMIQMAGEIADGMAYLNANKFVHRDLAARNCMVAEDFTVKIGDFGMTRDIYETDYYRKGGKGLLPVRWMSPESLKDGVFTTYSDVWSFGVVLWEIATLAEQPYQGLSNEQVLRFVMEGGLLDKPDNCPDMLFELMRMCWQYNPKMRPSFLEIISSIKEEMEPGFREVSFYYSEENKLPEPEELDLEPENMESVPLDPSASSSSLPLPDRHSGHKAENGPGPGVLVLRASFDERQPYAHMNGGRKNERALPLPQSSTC
Method in brief: as §1

MAP4K3 = MAP4K3 (Homo sapiens, UniProt Q8IVH8); assay: Kinase profiling; assay type: biochemical; details: 0.1 or 1 μM inhibitor; mean of triplicate
Method in brief: as §1

MAPKAP-K3 = MAPKAP-K3 (Homo sapiens, UniProt Q16644); assay: Kinase profiling; assay type: biochemical; details: 0.1 or 1 μM inhibitor; mean of triplicate
Method in brief: as §1

MARK1 = MARK1 (Homo sapiens, UniProt Q9P0L2); assay: Kinase profiling; assay type: biochemical
Method in brief: as §1

MEKK1 = MEKK1 (Homo sapiens, UniProt Q13233); assay: Kinase profiling; assay type: biochemical; details: 0.1 or 1 μM inhibitor; mean of triplicate
Method in brief: as §1

MINK1 = MINK1 (Homo sapiens, UniProt Q8N4C8); assay: Kinase profiling; assay type: biochemical; details: 0.1 or 1 μM inhibitor; mean of triplicate
Method in brief: as §1

MKK2 = MKK2 (Homo sapiens, UniProt P36507); assay: Kinase profiling; assay type: biochemical; details: 0.1 or 1 μM inhibitor; mean of triplicate
MKK2, sequence (P36507 whole entry): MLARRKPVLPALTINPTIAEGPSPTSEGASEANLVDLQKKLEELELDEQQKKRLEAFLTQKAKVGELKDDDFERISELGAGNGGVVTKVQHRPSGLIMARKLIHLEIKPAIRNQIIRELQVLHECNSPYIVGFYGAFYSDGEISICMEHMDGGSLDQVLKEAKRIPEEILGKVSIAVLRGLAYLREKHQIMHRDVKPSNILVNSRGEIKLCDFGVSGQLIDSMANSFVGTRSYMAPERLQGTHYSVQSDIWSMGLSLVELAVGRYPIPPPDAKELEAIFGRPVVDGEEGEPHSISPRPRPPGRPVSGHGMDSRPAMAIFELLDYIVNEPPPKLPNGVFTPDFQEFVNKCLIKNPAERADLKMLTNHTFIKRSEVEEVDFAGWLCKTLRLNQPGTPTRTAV
Method in brief: as §1

MKK6 = MKK6 (Homo sapiens, UniProt P52564); assay: Kinase profiling; assay type: biochemical; details: 0.1 or 1 μM inhibitor; mean of triplicate
Method in brief: as §1

MNK1 = MNK1 (Homo sapiens, UniProt Q9BUB5); assay: Kinase profiling; assay type: biochemical; details: 0.1 or 1 μM inhibitor; mean of triplicate
Method in brief: as §1

NEK2α = NEK2α (Homo sapiens, UniProt P51955); assay: Kinase profiling; assay type: biochemical; details: 0.1 or 1 μM inhibitor; mean of triplicate
Method in brief: as §1

PAK6 = PAK6 (Homo sapiens, UniProt Q9NQU5); assay: Kinase profiling; assay type: biochemical; details: 0.1 or 1 μM inhibitor; mean of triplicate
Method in brief: as §1

PDK1 = PDK1 (Homo sapiens, UniProt O15530); assay: Kinase profiling; assay type: biochemical; details: 0.1 or 1 μM inhibitor; mean of triplicate
Method in brief: as §1

PKCγ = PKCγ (Homo sapiens, UniProt P05129); assay: Kinase profiling; assay type: biochemical; details: 0.1 or 1 μM inhibitor; mean of triplicate
Method in brief: as §1

SIK3 = SIK3 (Homo sapiens, UniProt Q9Y2K2); assay: Kinase profiling; assay type: biochemical; details: 0.1 or 1 μM inhibitor; mean of triplicate
Method in brief: as §1

Src = Src (Homo sapiens, UniProt P12931); assay: Kinase profiling; assay type: biochemical; details: 0.1 or 1 μM inhibitor; mean of triplicate
Src, sequence (P12931 whole entry): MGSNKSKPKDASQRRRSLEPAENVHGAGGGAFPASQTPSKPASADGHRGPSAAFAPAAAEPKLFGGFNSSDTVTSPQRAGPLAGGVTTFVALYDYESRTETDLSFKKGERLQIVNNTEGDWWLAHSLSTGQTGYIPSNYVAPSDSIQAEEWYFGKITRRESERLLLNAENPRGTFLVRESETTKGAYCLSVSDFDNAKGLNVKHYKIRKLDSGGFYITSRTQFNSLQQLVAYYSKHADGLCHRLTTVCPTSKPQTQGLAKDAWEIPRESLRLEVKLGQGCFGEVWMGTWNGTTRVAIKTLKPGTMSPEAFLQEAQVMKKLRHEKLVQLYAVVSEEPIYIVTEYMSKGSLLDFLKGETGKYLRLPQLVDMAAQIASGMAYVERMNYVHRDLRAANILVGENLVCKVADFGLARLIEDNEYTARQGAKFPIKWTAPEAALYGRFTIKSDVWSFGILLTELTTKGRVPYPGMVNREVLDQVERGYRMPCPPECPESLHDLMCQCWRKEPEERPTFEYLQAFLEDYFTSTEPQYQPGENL
Method in brief: as §1

TIE2 = TIE2 (Homo sapiens, UniProt Q02763); assay: Kinase profiling; assay type: biochemical; details: 0.1 or 1 μM inhibitor; mean of triplicate
TTBK1 = TTBK1 (Homo sapiens, UniProt Q5TCY1); assay: Kinase profiling; assay type: biochemical; details: 0.1 or 1 μM inhibitor; mean of triplicate
Method in brief: as §1

ULK1 = ULK1 (Homo sapiens, UniProt O75385); assay: Kinase profiling; assay type: biochemical; details: 0.1 or 1 μM inhibitor; mean of triplicate
ULK1, sequence (O75385 whole entry): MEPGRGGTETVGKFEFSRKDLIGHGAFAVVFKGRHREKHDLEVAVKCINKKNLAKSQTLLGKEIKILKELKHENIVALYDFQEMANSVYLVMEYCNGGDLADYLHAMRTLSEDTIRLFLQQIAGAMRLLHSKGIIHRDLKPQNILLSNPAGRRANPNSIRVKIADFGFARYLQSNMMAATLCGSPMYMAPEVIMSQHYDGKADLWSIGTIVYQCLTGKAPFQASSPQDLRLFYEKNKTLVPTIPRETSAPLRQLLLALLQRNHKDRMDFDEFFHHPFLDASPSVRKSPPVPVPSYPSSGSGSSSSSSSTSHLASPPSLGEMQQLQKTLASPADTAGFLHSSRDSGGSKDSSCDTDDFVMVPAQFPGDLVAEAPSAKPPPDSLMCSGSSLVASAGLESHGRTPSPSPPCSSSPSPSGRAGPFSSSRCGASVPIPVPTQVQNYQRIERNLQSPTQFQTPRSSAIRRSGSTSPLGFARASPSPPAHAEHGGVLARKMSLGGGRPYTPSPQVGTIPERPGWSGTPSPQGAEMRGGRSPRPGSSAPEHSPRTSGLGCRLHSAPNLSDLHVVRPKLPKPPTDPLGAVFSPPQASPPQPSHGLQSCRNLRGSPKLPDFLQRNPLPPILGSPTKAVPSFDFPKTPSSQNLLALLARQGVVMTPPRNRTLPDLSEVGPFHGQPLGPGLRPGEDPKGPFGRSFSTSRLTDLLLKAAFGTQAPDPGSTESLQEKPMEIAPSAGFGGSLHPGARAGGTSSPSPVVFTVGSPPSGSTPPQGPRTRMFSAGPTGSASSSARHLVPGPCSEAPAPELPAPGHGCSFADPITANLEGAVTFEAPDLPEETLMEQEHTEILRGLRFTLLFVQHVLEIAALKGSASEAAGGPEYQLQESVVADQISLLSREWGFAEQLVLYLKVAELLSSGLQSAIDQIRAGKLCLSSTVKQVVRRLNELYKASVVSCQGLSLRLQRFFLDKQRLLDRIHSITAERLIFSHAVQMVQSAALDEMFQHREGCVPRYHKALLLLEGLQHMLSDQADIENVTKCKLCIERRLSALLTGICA
Method in brief: as §1

VEG-FR = VEG-FR (Homo sapiens, UniProt P17948); assay: Kinase profiling; assay type: biochemical; details: 0.1 or 1 μM inhibitor; mean of triplicate
VEG-FR, sequence (P17948 27-1338): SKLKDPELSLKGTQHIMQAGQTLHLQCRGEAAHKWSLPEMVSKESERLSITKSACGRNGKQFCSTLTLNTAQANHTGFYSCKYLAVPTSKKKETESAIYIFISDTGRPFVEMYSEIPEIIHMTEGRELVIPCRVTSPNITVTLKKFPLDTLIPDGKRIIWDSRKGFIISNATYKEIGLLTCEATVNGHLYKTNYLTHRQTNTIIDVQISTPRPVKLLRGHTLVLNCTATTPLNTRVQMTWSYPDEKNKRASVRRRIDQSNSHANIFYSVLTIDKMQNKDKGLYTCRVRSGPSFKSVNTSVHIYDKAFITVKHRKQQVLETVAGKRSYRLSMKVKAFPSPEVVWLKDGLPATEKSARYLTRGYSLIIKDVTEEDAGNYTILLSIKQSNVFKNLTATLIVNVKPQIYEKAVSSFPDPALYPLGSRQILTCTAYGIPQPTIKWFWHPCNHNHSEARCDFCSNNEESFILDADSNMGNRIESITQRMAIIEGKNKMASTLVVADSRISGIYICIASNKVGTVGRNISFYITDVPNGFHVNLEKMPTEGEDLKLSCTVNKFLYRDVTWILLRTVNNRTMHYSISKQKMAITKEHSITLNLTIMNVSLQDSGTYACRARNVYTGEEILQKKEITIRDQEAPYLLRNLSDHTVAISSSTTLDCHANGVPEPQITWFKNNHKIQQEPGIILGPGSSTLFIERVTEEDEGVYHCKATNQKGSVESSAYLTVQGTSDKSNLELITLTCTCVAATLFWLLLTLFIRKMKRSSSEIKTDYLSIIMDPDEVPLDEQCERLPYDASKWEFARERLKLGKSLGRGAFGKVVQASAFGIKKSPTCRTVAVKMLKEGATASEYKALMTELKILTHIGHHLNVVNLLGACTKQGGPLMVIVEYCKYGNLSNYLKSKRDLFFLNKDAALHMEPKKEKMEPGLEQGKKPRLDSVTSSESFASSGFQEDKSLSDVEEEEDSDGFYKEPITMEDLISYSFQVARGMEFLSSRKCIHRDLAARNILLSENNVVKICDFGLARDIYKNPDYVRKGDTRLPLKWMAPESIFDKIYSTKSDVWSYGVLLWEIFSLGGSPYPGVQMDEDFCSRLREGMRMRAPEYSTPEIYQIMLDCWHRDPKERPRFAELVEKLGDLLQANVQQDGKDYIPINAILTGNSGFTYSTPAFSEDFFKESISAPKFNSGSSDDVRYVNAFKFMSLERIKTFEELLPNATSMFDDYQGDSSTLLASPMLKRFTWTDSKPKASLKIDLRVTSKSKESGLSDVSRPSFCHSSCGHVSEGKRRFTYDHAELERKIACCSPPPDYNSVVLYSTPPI
Method in brief: as §1

Row | Compound | Proliferation of U2OS cells (in words) (U2OS cells) | Suppression of MYPT1 phosphorylation in MEFs (in words) (MYPT1 phosphorylation) | ASK1 activity, percentage of DMSO control (ASK1) | CAMKKβ activity, percentage of DMSO control (CAMKKβ) | CHK2 activity, percentage of DMSO control (CHK2) | CK2 activity, percentage of DMSO control (CK2) | EPH-B3 activity, percentage of DMSO control (EPH-B3) | ERK2 activity, percentage of DMSO control (ERK2) | IGF-1R activity, percentage of DMSO control (IGF-1R) | MAP4K3 activity, percentage of DMSO control (MAP4K3) | MAPKAP-K3 activity, percentage of DMSO control (MAPKAP-K3) | MEKK1 activity, percentage of DMSO control (MEKK1) | MINK1 activity, percentage of DMSO control (MINK1) | MKK2 activity, percentage of DMSO control (MKK2) | MKK6 activity, percentage of DMSO control (MKK6) | MNK1 activity, percentage of DMSO control (MNK1) | NEK2α activity, percentage of DMSO control (NEK2α) | PAK6 activity, percentage of DMSO control (PAK6) | PDK1 activity, percentage of DMSO control (PDK1) | PKCγ activity, percentage of DMSO control (PKCγ) | further results
1 | Cc1nc(Nc2cnn(C3CCNCC3)c2)nc2c1N(C)C(=O)c1cc3ccccc3cc1N2C [HTH-01-015] | suppressed proliferation | to the same extent as NUAK1-knockout | 105 percentage | 87 percentage | 105 percentage | 120 percentage | 120 percentage | 125 percentage | 133 percentage | 127 percentage | 96 percentage | 110 percentage | 101 percentage | 111 percentage | 87 percentage | 102 percentage | 103 percentage | 95 percentage | 102 percentage | 107 percentage | MARK1 activity, percentage of DMSO control (MARK1; 0.1 or 1 μM inhibitor, mean of triplicate): 106 percentage; SIK3 activity, percentage of DMSO control (SIK3): 109 percentage; Src activity, percentage of DMSO control (Src): 76 percentage; TIE2 activity, percentage of DMSO control (TIE2): 84 percentage; TTBK1 activity, percentage of DMSO control (TTBK1): 124 percentage; ULK1 activity, percentage of DMSO control (ULK1): 132 percentage; VEG-FR activity, percentage of DMSO control (VEG-FR): 97 percentage
2 | CCC(=O)Nc1cccc(Oc2nc(Nc3ccc(N4CCN(C)CC4)cc3OC)ncc2Cl)c1 [WZ4003] | suppressed proliferation | to the same extent as NUAK1-knockout | 107 percentage | 44 percentage | 40 percentage | 76 percentage | 113 percentage | 107 percentage | 33 percentage | 111 percentage | 91 percentage | 91 percentage | 120 percentage | 98 percentage | 101 percentage | 104 percentage | 110 percentage | 104 percentage | 104 percentage | 103 percentage | SIK3 activity, percentage of DMSO control (SIK3): 102 percentage; Src activity, percentage of DMSO control (Src): 109 percentage; TIE2 activity, percentage of DMSO control (TIE2): 94 percentage; TTBK1 activity, percentage of DMSO control (TTBK1): 78 percentage; ULK1 activity, percentage of DMSO control (ULK1): 52 percentage; VEG-FR activity, percentage of DMSO control (VEG-FR): 74 percentage
3 | CN1C(=O)c2ccccc2N(C)c2nc(Nc3cnn(C4CCNCC4)c3)ncc21 [XMD-17-51] |  |  |  |  |  |  |  |  |  |  |  |  |  |  |  |  |  |  |  |  | Inhibition of MARK1 in profiling (in words) (MARK1; 1 μM): inhibited
